Assay results reported in patent publication US10980808B2, “Calmodulin inhibitors, Chk2 inhibitors and RSK inhibitors for the treatment of ribosomal disorders and ribosomapathies” (THE CHILDREN'S MEDICAL CENTER CORPORATION, priority 2016, dated 2021).
“Also recorded” adds a separate entry of the source. Blank lines part the entries; values can stand above or below the molecule they belong to.

Key:
[1] = tested on: RPS19 shRNA CD34+ peripheral blood mononuclear cells; assay: primary human in vitro differentiation model of DBA: CD34+ PBMCs with RPS19 shRNA, CD71+ flow cytometry; type: cell-based; settings: treated once for 5 days
Text: FIG. 40 is a schematic of the testing of novel phenothiazine derivatives in a human in vitro model of DBA. Primary human peripheral blood mononuclear cells (PBMCs) are transduced with RPS19-GFP shRNA to make a ribiosomal protein deficiency. Cells are transferred to eyrthroid differentiation media and treated once for 5 days with Drug. Cells are harvested and analyzed for erythroid precursors by flow cytomety for CD71^+ cells.
We next tested three derivatives in our primary human in vitro differentiation model of DBA. To do this we expanded CD34+ peripheral blood mononuclear cells in culture for 2 days and induced ribosomal protein deficiency with a lentirvirus containing RPS19 shRNA (FIG. 40). After 3 days the cells are placed into erythroid differentiation media with or without the novel derivatives and cultured for 5 days. Erythroid differentiation is then assessed by flow cytometry analysis for the transferrin receptor, CD71+. […] In addition, the novel derivatives increased the absolute erythroid number compared to DMSO treated (FIG. 41). […] A table summarizing the activity of the compounds is found in FIG. 43.

[2] = tested on: rps29−/− zebrafish embryos; assay: chemical screen: rescue of morphological, hematopoietic and endothelial defects of rps29-/- embryo; type: in vivo
[3] = tested on: rps29−/− zebrafish embryos; assay: hemoglobin (benzidine staining) rescue in rps29-/- zebrafish embryos; type: in vivo; settings: for Hb increase at low concentrations: rps29−/− embryos, compared with positive control fluphenazine / with DB-4-089; for hemoglobin (Hb) in rps29−/− embryos: benzidine staining
6 dpf WT zebrafish = assay: zebrafish behavior tracking (proxy for BBB permeation); settings: for zebrafish movement / swimming behavior vs DMSO: 6 dpf, drug in fish water, tracked 1-2 h
[4] = tested on: p53 phosphorylation in 293T cells; assay: mass spectrometry of p53 post-translational modifications in 293T cells; type: cell-based; settings: 3 hours
Protocol: FIGS. 10A to 10C show schematics, graphs and gels that indicate CaM and Chk2 inhibitors reduce S392 phosphorylation. FIG. 10A is a schematic of conserved regulatory region phosphorylation sites. FIG. 10B are graphs of an unbiased mass spectrometry analysis looking for post-translational modifications of p53 altered in the presence of the CaM inhibitor TFP or the Chk2 inhibitor, BML. 293T cells were transfected with WT-p53 tagged with GFP and treated with TFP or BML for 3 hours. P53 was immunoprecipitated using an antibody against GFP and was submitted for mass spec analysis. […] By two different mass spec methods, either conventional mass spec or by TMT tagging of the peptide we found in both cases the percentage of peptides containing phosphorylated serine 392 was reduced in TFP and BML treated samples (FIG. 10B). It was also noted that this serine is conserved in both zebrafish and mouse (FIG. 10A). FIG. 10C is a Western Blot that indicates phosphorylation decrease.

[5] = tested on: 293T cells with RPS19 shRNA; assay: phosphorylation in 293T cells with RPS19 shRNA; type: cell-based, human
Text: FIGS. 17A to 17C are scehmatics and gels that indicate CaM and Chk2 inhibitors block phosphorylation of p70S6K selectively during RP deficiency. FIG. 17A schematic, we used 293T cells, and induced ribosomal protein deficiency using shRNA for RPS19 or Luc for control. […] ERK phosphorylation is increased by these inhibitors, which is also seen with RSK inhibitors. FIG. 17C a gel of the effect of Luc and […] shRNA on phosphorylated S392. […] RSK inhibitors increase ERK phosphorylation through a negative feedback loop. So TFP and BML similarly affect ERK in the same manner.

p70S6K = p70S6K (Homo sapiens, UniProt P23443); assay: in vitro kinase profiling (Thermo Fisher SelectScreen), p70S6K; type: biochemical
Chain of p70S6K (P23443 whole entry): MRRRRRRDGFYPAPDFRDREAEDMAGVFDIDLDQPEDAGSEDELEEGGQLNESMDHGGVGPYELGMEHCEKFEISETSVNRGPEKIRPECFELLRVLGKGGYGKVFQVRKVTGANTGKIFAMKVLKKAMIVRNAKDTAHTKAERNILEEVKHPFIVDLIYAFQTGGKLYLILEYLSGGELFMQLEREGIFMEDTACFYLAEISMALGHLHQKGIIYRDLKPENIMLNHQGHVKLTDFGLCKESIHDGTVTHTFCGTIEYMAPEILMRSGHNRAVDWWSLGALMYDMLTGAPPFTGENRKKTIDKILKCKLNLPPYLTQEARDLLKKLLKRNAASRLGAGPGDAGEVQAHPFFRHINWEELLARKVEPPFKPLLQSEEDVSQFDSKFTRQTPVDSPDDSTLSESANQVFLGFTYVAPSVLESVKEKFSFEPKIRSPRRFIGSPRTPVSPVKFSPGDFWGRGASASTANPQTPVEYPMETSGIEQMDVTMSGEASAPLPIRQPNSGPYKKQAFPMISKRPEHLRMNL
Text: We asked if CaM and Chk2 inhibitors are blocking specific kinases. The known kinases that phosphorylate S392 are CK2 and p38. […] Thus, the question became what is TFP inhibiting upstream? Is it inhibiting a kinase that phosphorylates S392? We submitted CaM and Chk2 inhibitors for Kinase profiling using Thermo Fisher's SelectScreen.

Structure (SMILES): CC(C)N(CCCN1c2ccccc2Sc2ccc(Cl)cc21)CCCN1c2ccccc2Sc2ccc(Cl)cc21 [088-2]
percentage of erythroid precursor cells (CD71+) compared to DMSO [1]: increased the percentage of erythroid precursor cells | rescuing morphological defects and hematopoietic and endothelial defects [2]: work particularly well | Hb increase at low concentrations [3]: increase Hb at lower concentrations than the positive control phenothiazine

Structure (SMILES): CC(C)NCCCN1c2ccccc2Sc2ccc(Cl)cc21 [088-3]
rescuing morphological defects and hematopoietic and endothelial defects [2]: work particularly well | Hb increase at low concentrations [3]: increase Hb at lower concentrations than the positive control phenothiazine

zebrafish movement / swimming behavior vs DMSO (6 dpf WT zebrafish): more erratic activity
Structure (SMILES): Clc1ccc2c(c1)N(CCCN1CCN(CCNCCCOCCOCCOCCCNC(c3ccccc3)(c3ccccc3)c3ccccc3)CC1)c1ccccc1S2 [221E]

Structure (SMILES): NCCNS(=O)(=O)c1cccc2c(Cl)cccc12 [A-3]
hemoglobin (Hb) in rps29−/− embryos [3]: rescue Hb

Structure (SMILES): NC(=O)c1ccc2nc(-c3ccc(Oc4ccc(Cl)cc4)cc3)[nH]c2c1 [BML]
percentage of peptides containing phosphorylated Serine 6 of p53 [4]: did not change | percentage of peptides containing phosphorylated Serine 315 of p53 [4]: did not change | percentage of peptides containing phosphorylated serine 392 of p53 ([4]; WT-p53-GFP): reduced | ERK phosphorylation [5]: increased | phosphorylation of p70S6K ([5]; during ribosomal protein deficiency): selectively inhibited

Structure (SMILES): OCCN1CCN(CCCN2c3ccccc3Sc3ccc(C(F)(F)F)cc32)CC1 [FLU, fluphenazine]
hemoglobin (Hb) in rps29−/− embryos [3]: rescues better than either RSK or p70S6K inhibitor alone | hemoglobin (Hb) in rps29−/− embryos ([3]; listed as fluphenazine): increase Hb

percent inhibition of in vitro kinase activity, p70S6K (p70S6K): inhibition
Structure (SMILES): NC1=N/C(=C2/CCNC(=O)c3cc4[nH]c5ccccc5c4cc32)C(=O)N1 [III]
hemoglobin (Hb) in rps29−/− embryos [3]: Resues Hb; also recorded: rescue Hb

Structure (SMILES): CCc1cncnc1N1CCN(Cc2nc3cc(C(F)(F)F)ccc3[nH]2)CC1 [PF, 2-[[4-(5-Ethylpyrimidin-4-yl)piperazin-1-yl]methyl]-5-(trifluoromethyl)-1H-benzo[d]imidazole]
hemoglobin (Hb) in rps29−/− embryos [3]: increase Hb

Structure (SMILES): O=C(O)CCC(=O)NCCN1CCN(CCCN2c3ccccc3Sc3ccc(Cl)cc32)CC1 [PerSucc]
rescuing morphological defects and hematopoietic and endothelial defects [2]: work particularly well | hemoglobin (Hb) in rps29−/− embryos [3]: dramatic rescue of Hb expression; also recorded: increase Hb | zebrafish movement / swimming behavior vs DMSO (6 dpf WT zebrafish): less active and rest more than DMSO treated fish

Structure (SMILES): NCCCCCCNS(=O)(=O)c1cccc2c(Cl)cccc12 [W-7]
hemoglobin (Hb) in rps29−/− embryos [3]: rescue Hb

Structure (SMILES): CC(C)(C)OC(=O)CCN1CCN(CCCN2c3ccccc3Sc3ccc(Cl)cc32)CC1 [compound 083]
Hb increase at low concentrations [3]: did not increase Hb at the same low concentrations

Structure (SMILES): Clc1ccc2c(c1)N(CCCN1CCCCC1)c1ccccc1S2 [compound 084]
Hb increase at low concentrations [3]: did not increase Hb at the same low concentrations

Structure (SMILES): Clc1ccc2c(c1)N(CCCN1CCOCC1)c1ccccc1S2 [compound 086]
Hb increase at low concentrations [3]: did not increase Hb at the same low concentrations

Structure (SMILES): CN1CCC(N(CCCN2c3ccccc3Sc3ccc(Cl)cc32)CCCN2c3ccccc3Sc3ccc(Cl)cc32)CC1 [compound 089]
percentage of erythroid precursor cells (CD71+) compared to DMSO [1]: increased the percentage of erythroid precursor cells | percentage of erythroid precursor cells (CD71+) compared to DMSO ([1]; listed as DB-4-089): increased eyrthroid differentiation | rescuing morphological defects and hematopoietic and endothelial defects [2]: work particularly well | Hb increase at low concentrations [3]: increase Hb at lower concentrations than the positive control phenothiazine | Hb increase at low concentrations ([3]; listed as DB-4-089): increased Hb at low concentrations | zebrafish movement / swimming behavior vs DMSO (6 dpf WT zebrafish): altered behavior; also recorded: alters movement | toxicity in behavior assay (6 dpf WT zebrafish; highest dose): toxic at the highest dose

Structure (SMILES): OCCN1CCN(CCCN2c3ccccc3Sc3ccc(Cl)cc32)CC1 [perphenizine]
hemoglobin (Hb) in rps29−/− embryos [3]: increase Hb
